The text below walks through data of article PMC10343216 (Molecules, 2023).

In one series the target is T1, human 11β-HSD1 (Homo sapiens, UniProt P28845).
T1 construct: Human 11β-HSD1 in liver microsomes catalyzes the conversion of cortisone to cortisol; tissue Iphase (Beijing, China) H2610; host or cells: human liver microsomes (purchased)
Description: Human 11β-HSD1 assay in human liver microsomes (cortisone to cortisol, HPLC-MS/MS). The format is biochemical. The settings on record: for IC50 / remaining activity at 100 µM: 200 nM cortisone, 15 min; for IC50: Mean ± SEM, n = 4; for remaining activity at 100 µM: human, 100 µM compound, read-out: 11β-HSD1 residual activity relative to the control (DMSO); for Mode Action: human 11β-HSD1, judged by α and Lineweaver-Burk plot. As for the experimental part:
(§1) The 11β-HSD1 activity was determined by measuring the reductive catalysis of 11keto-steroid substrates, cortisone for human 11β-HSD1 and DHC for rat 11β-HSD1, which were converted to cortisol and CORT, respectively. The 11β-HSD1 assay was carried out as previously described with a minor modification. […] At the end of the reaction, acetonitrile (200 µL, CAT#: UN1648; Sigma) and internal standard testosterone-d5 (IS, T-d5, 10 μL, Zzbio, Shanghai, China) were added to the system, the organic layer was extracted, and 10 µL was injected into the HPLC-MS/MS system to measure cortisol, or CORT, as previously described.
(§2) The amount of cortisol, or CORT, in the organic layer was determined using an Acquity UPLC equipped with a BEH C18 column (2.1 mm, 50 mm, 1.7 m) and a 0.2 mm stainless steel frit filter and an XEVO TQD triple quadrupole mass spectrometer (Waters, Milford, MA, USA), as previously described. The mobile phase was a mixture of solvents A (0.1% formic acid in water) and B (acetonitrile) combined in the following gradient program: 5–5% B (0–0.5 min), 5–95% B (0.5–1.0 min), 95–95% B (1.0–2.0 min), and 95–5% B (2.0–2.1 min). The injection volume was 6 µL, and the flow rate was 0.40 mL/min. Before the second injection, a re-equilibration period of 0.9 min was set. The temperatures were 4 °C for the sample and 40 °C for column. Mass spectrometric detection was carried out using a Waters Corporation XEVO TQD triple quadruple mass spectrometer with an ESI source. For cortisol and IS, the multiple reaction monitoring mode transitions were m/z 358.3→340.3 and m/z 237.2→194.3. Data collection and instrument control were performed using Masslynx 4.1 software (Waters Corp., Milford, MA, USA). Cortisol, or CORT, standards were prepared by dissolving them in methanol. […] The enzymatic activity obtained by measuring the conversion rate (%) of cortisone to cortisol for human 11β-HSD1 or DHC to CORT for rat 11β-HSD1 was calculated.
(§3) The time curve of the 11β-HSD1 reaction was prepared by a linear regression using GraphPad version 8.0 (GraphPad, San Diego, CA, USA). […] The lineweaver-Burk plot after linear regression was also carried out to judge the mode of action.

Another series addresses T2, rat 11β-HSD1 (Rattus norvegicus, UniProt P16232).
T2 construct: Rat 11β-HSD1 in liver microsomes catalyzes the conversion of DHC to CORT; from tissue; host or cells: liver microsomes of male Sprague-Dawley rats (age 3 months), prepared in house
Description: Rat 11β-HSD1 assay in rat liver microsomes (DHC to CORT, HPLC-MS/MS). In kind it is biochemical. The following applies: for remaining activity at 100 µM: read-out: 11β-HSD1 residual activity relative to the control (DMSO); for Mode Action: rat 11β-HSD1, judged by α and Lineweaver-Burk plot; for α (mixed model): rat liver 11β-HSD1. Here is the method:
The preparation of rat liver microsomes was carried out as previously reported. In this preparation procedure, rat livers were homogenized in sucrose (0.25 M) containing PBS (0.01 M, pH 7.2). […] The pellets were resuspended in cold PBS by homogenization, and the concentration of microsomal protein was determined using the Bio-Rad Protein Assay Kit (CAT#: P0010; Beyotime, Jiangsu, China) according to the manufacturer’s instructions.
as §1, §2, §3
In general terms: Microsomes from liver hold many membrane-bound enzymes, among them those of drug oxidation.

The conditions of series [1]: ZINC database ref 39; cited from earlier work.
[2] abbreviates: rat, 100 µM compound, 200 nM DHC, 15 min.
The mark [3] stands for this setting: human liver microsomes, read-out: IC50.
The mark [4] stands for this setting: substrate, rat liver microsomes, Michaelis-Menten.
Setting [5] is: substrate, human liver microsomes, Michaelis-Menten.

Several values for one entry are separate records, joined by “and”; a condition that tells them apart may be missing. Equal entries are not always repeated. Where two headings read alike, the source gives them in different places. Where only a bound is given, the exact number is not on record here.

T1 sequence (P28845 whole entry): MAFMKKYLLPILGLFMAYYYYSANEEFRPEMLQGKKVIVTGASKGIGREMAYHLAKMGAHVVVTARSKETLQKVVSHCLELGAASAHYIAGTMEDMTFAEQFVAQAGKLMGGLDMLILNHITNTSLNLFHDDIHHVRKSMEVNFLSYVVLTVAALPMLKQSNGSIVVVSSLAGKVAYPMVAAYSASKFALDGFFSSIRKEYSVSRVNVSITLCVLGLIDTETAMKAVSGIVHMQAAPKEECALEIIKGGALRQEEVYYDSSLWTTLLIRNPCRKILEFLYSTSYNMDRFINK
T2 sequence (P16232 whole entry): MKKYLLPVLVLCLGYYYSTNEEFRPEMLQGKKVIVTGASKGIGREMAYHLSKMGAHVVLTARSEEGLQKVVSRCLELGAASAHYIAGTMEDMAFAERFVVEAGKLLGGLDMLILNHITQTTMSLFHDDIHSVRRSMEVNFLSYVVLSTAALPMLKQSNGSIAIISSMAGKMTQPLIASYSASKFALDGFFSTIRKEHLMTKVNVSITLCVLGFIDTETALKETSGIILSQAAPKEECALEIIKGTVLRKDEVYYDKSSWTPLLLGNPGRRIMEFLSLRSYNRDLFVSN

`CC(C)(c1ccc(O)cc1)c1ccc(O)cc1` [BPA, bisphenol A, reference compound]: the IC50 (usually the concentration that gives 50% inhibition) stood at 297 ± 2.99 µM against human 11β-HSD1 (IC50, human liver microsomes) and 36.8 ± 1.09 µM against rat 11β-HSD1. Further, the figures for the remaining activity at 100 µM on human 11β-HSD1 and at rat 11β-HSD1 (setting [2]) were over 50% and at most 50%, respectively. In addition, in series [1], the LogP (as a rule, the decadic logarithm of the partition coefficient of the neutral form, usually between octanol and water) is 3.424 and 3.42.
On to `COc1ccc(C(C)(C)c2ccc(OC)cc2)cc1` [BPAME, 4,4′-(propane-2,2-diyl)bis(methoxybenzene)], for which the “Mode Action” value at human 11β-HSD1 is “competitive inhibitors”. For the same molecule, the IC50 at human 11β-HSD1 (setting [3]) is 33.1 ± 0.57 µM; on rat 11β-HSD1 (rat liver microsomes, 200 nM DHC, 15 min, Mean ± SEM, n = 4, read-out: IC50), 206 ± 2.16 µM. On human 11β-HSD1 (human liver microsomes, enzyme kinetics-inhibition (mixed model), read-out: Ki (inhibition constant, measured)), the Ki (as a rule, the equilibrium dissociation constant of an inhibitor or competing ligand from its target) is 33.8 µM. For the same molecule, the remaining activity at 100 µM at human 11β-HSD1 was at most 50%; at rat 11β-HSD1 (setting [2]) it was over 50%. Further, the lipophilicity (LogP) in series [1] is given as 4.03.
Take `CC(C)c1cc(C(C)(C)c2ccc(O)c(C(C)C)c2)ccc1O` [BPG, 4,4′-(propane-2,2-diyl)bis(2-isopropylphenol)]: on human 11β-HSD1, the affinity corresponds to a Ki of 5.33 µM, the “Mode Action” value is “competitive inhibitors” and the remaining activity at 100 µM is at most 50%. Further, the concentration for half-maximal inhibition (IC50) at human 11β-HSD1 (IC50, human liver microsomes) amounted to 5.06 ± 0.07 µM. Further, on rat 11β-HSD1, the 50% inhibitory concentration (IC50) worked out at 104 ± 1.52 µM, the inhibition constant Ki stood at 88.6 µM, the “Mode Action” value is “mixed/competitive inhibitors” and the “α (mixed model)” value came to 5.78. The remaining activity at 100 µM on rat 11β-HSD1 (setting [2]) is at most 50%. For the same molecule, in series [1], the log partition coefficient (LogP) is 5.671.
As to `CC(C)(c1ccc(O)c(-c2ccccc2)c1)c1ccc(O)c(-c2ccccc2)c1` [BPH, 2,2-bis(2-hydroxy-5-biphenylyl)propane], at human 11β-HSD1, the affinity corresponds to a Ki of 0.44 µM, the “Mode Action” value is given as “competitive inhibitors” and the remaining activity at 100 µM was at most 50%. Besides, it took 0.75 ± 0.02 µM to reach half-maximal inhibition at human 11β-HSD1 (IC50, human liver microsomes) (IC50). For the same molecule, on rat 11β-HSD1, the IC50 came out at 74.2 ± 0.98 µM; the affinity, expressed as Ki, was 74.6 µM; the “Mode Action” value is listed as “mixed/competitive inhibitors”; the “α (mixed model)” value is recorded as “∞”. In addition, the remaining activity at 100 µM at rat 11β-HSD1 (setting [2]) is at most 50%. Besides, in series [1], the LogP is given as 6.758.
With `C=CCc1cc(C(C)(C)c2ccc(O)c(CC=C)c2)ccc1O` [DABPA, 2,2′-diallyl BPA], on human 11β-HSD1, the Ki was determined as 14 µM, the “Mode Action” value is recorded as “competitive inhibitors” and the remaining activity at 100 µM was at most 50%. Moreover, on human 11β-HSD1 (IC50, human liver microsomes), the half-inhibitory concentration (IC50) came out at 13.4 ± 0.19 µM. The same molecule had an IC50 on rat 11β-HSD1 of 132 ± 1.66 µM. Further, the remaining activity at 100 µM at rat 11β-HSD1 (setting [2]) is over 50%. Besides, the log partition coefficient (LogP) in series [1] is reported as 4.881.
In the case of `C[C@]12CC(=O)[C@H]3[C@@H](CCC4=CC(=O)CC[C@@]43C)[C@@H]1CC[C@@H]2C(=O)CO` [DHC, 11-dehydrocorticosterone, reference compound], on rat 11β-HSD1 (setting [4]), the Michaelis-Menten constant (Km) (as a rule, the substrate concentration at which the rate is half of its maximum) was 0.94 ± 0.09 µM and the Vmax (commonly the rate approached at saturating substrate) was found to be 1072 ± 115.5 pmol/mg/min.
Turning to `Cc1cc(C(C)(C)c2ccc(O)c(C)c2)ccc1O` [DMBPA, 2,2-bis(4-hydroxy-3-methylphenyl)propane], at human 11β-HSD1, the inhibition constant (Ki) was 31 µM, the “Mode Action” value was “competitive inhibitors” and the remaining activity at 100 µM is at most 50%. This molecule displayed a half-maximal inhibitory concentration (IC50) on human 11β-HSD1 (IC50, human liver microsomes) of 30.2 ± 0.71 µM. Also, the remaining activity at 100 µM on rat 11β-HSD1 (setting [2]) is over 50%. Also, the LogP in series [1] was 4.041 and 4.04.
On to `Cc1cc(C(C)(C)c2cc(C)c(O)c(C)c2)cc(C)c1O` [TMBPA, 2,2-bis(4-hydroxy-3,5-dimethylphenyl)propane], for which the half-maximal inhibitory concentration (IC50) on human 11β-HSD1 (setting [3]) was 319.2 ± 2.78 µM. Also, at human 11β-HSD1, the remaining activity at 100 µM was over 50%. In addition, the “11β-HSD1 residual activity relative to the control (DMSO)” value on rat 11β-HSD1 (setting [2]) is recorded as “ineffective”.
Consider `C[C@]12CCC(=O)C=C1CC[C@@H]1[C@@H]2C(=O)C[C@@]2(C)[C@H]1CC[C@]2(O)C(=O)CO` [cortisone, reference compound], for which, at human 11β-HSD1 (setting [5]), the Michaelis-Menten constant (Km) worked out at 0.93 ± 0.22 µM and the maximum rate (Vmax) turned out to be 253.2 ± 20.5 pmol/mg/min.
